Drawing on patent US7217559B2, “Gene encoding cyclododecanone monooxygenase” (National Research Council of Canada, priority 2002, dated 2007), this text covers relative activity and CDMO activity for six molecules.

The subject of series [1] is cyclododecanone monooxygenase (CDMO). Briefly: Substrate specificity of cloned CDMO (relative activity towards cyclic ketones). The following applies: ketone as substrate, cyclododecanone = 100%. The class given is biochemical, Pseudomonas putida strain HI-70.
Series [2] shares this test system. Briefly: Comparison of CDMO activity in E. coli and native HI-70. Type of series: biochemical, Pseudomonas putida strain HI-70.

With `O=C1CCCCCCCCCCCC1` [cyclotridecanone], in series [1], the relative activity came to 138%.
Regarding `O=C1CCCCCCCCC1` [cyclodecanone], the relative activity in series [1] worked out at 10%.
Still for that read-out and setting: the result for `O=C1CCCCCCCCCCC1` [cyclododecanone] reads 100%; that for `O=C1CCCCCCCCCCCCCC1` [cyclopentadecanone], 144%.
Still for that read-out and setting: the value for `O=C1CCCCCCCCCC1` [cycloundecanone] was 56%.

B1: CDMO: cyclododecanone monooxygenase of Pseudomonas putida HI-70, encoded by cdnB, amino acid sequence SEQ ID NO:8 (protein)
chain: MSQLIQEPAEAGVTSQKVSFDHVALREKYRQERDKRLRQDGQEQYLEVAVTCDEYLKDPYADPIVRDPVVRETDVFIIGGGFGGLLAAVRLQQAGVSDYVMVERAGDYGGTWYWNRYPGAQCDIESYVYMPLLEEMGYIPTEKYAFGTEILEYSRSIGRKFGLYERTYFQTEVKDLSWDDEAARWRITTDRGDKFSARFVCMSTGPLQRPKLPGIPGITSFKGHSFHTSRWDYSYTGGDQTGNLEGLKDKRVAIIGTGATSIQAVPHLAAYAQELYVIQRTPISVGFRGNKPTDPEWAKSLQPGWQQARMDNFNAITHGMPVDVDLVQDSWTKIFGEIGVFLGSDGSRAQMVDFQLMEQIRARVDQEVKDPATAESLKPYYNIMCKRPGFHDSYLPSFNKPNVTLVDTQGAGVERITEKGLVVNGREYEVDCLIYATGFEYQTKLSRRNGYEIHGRNGQPLSDKWKDGLSTLWGYHIRDFPNCFILGNGQSAVTPNFTHMLNEAGKHVAYVVKHCLDERVDVFEPTAEAEQAWVDHVMSFAGIKQQYDRECTPSYYNNEGQVNDVALTRTTSTRAVRSLINILREWREKGDFAQFQQRKR
modifications: Primer
Take B1: the CDMO activity in series [2] (from E. coli DH5α(pSD-cdnB)) is recorded as 0.48 U/mg of protein; in series [2] (original P. putida strain HI-70), 0.14 U/mg of protein.
